From patent publication US12404285B2, “KRAS G12D proteolysis targeting chimeras” (PAQ Therapeutics Inc., priority 2022, dated 2025)

Target: T1, KRAS (G12D)-HiBit in AsPc-1-KRAS (G12D)-HiBit-KI cell (Homo sapiens, UniProt P01116, G12D)
T1 construct: host or cells: AsPc-1-KRAS (G12D)-HiBit-KI cells (knock-in line)
Assay: G12D HiBit assay
Format: cell-based
Conditions: 24 hours compound treatment, absolute DC50, read-out: Average PHA DC50
Description: Day 1. Prepared the culture medium for AsPc-1-KRAS (G12D)-HiBit-KI cell (Pharmaron) using RPMI 1640 medium (Gibco, 11875093) with 10% FBS (Gibco, 10099141C) and 1% Penicillin-Streptomycin Liquid (Solarbio, P1400). Cultivated cells in T-75 flasks in a cell culture incubator (Thermo, Model: 371) at 37° C., 5% CO2. Allowed cells to reach approximately 80% confluence before splitting. Rinsed cultivated cells in T-75 flasks with 5 mL PBS (Solarbio, P1020-500). Aspirated off PBS, added 1.5 mL trypsin (Invitrogen, #25300), and incubated at 37° C. for approximately 5 minutes or until the cells detached. Inactivated trypsin by adding excessive serum containing medium. Harvested the cells from flask into cell culture medium and counted the cell number. Seeded AsPc-1-KRAS (G12D)-HiBit-KI cell into 384-well plate (Corning, 3570) (cell density: 5×10^3 cells/well in 50 μL medium) in RPMI 1640 medium and incubated overnight at 37° C. and 5% CO2.
Day 2. Test compounds were dissolved at 0.3 mM in DMSO (Solarbio, D8371) as stock solution. Transferred 45 μL of stock solution to a 384-well plate (Labcyte, 001-14555). Performed 3-fold, 10-points dilution via transferring 15 μL compound into 30 μL DMSO by using TECAN liquid handler (TECAN, Freedom EVO200). The compound plates were spin at room temperature at 1,000 RPM for 1 minute (Eppendorf, 5810R). Transferred 50 nL of diluted compounds from compound source plate into the cell plate by Echo (Labcyte, 550) to achieve final concentrations of 300 nM, 100 nM, 33.3 nM, 11.1 nM, 3.7 nM, 1.23 nM, 0.41 nM, 0.14 nM, 0.046 nM and 0.015 nM, then mixed the cell plate on a plate shaker (Yoning, WZ-4) for 15 seconds at 900 rpm. After compound treatment for 24 hours, removed the plate from incubators and equilibrated at room temperature for 15 minutes. Prepared the HiBit reagent (Promega, N3040) by mixing 10 mL of Nano-Glo®-HiBiT Lytic Buffer with 200 μL of Nano-Glo®-HiBiT Lytic Substrate and 100 μL of LgBiT Protein. Added 20 μL of HiBit reagent into each well of the cell plate and spun the plates at room temperature at 1,000 RPM for 1 minute. Then shook the plates at 600 RPM at room temperature for 20 minutes using a plate shaker (Yoning, WZ-4), and read the luminescence by EnVision (PerkinElmer, 2105-0020).
The inhibition activity was calculated using the following formula: HiBit-G12D level (%)=100%×[Luminescence(Sample)/Mean of Luminescence (HC)] where HC (high control) is obtained from cells treated with 0.1% DMSO only.
Absolute DC50 was calculated by fitting the curve using GraphPad Prism v8.0.2 (analyis 263): Y=Bottom+(100−Bottom)/(1+10^(Log AbsoluteIC50−X)*HillSlope+log((100−Bottom)/(50−Bottom)−1)))
The data are reported in Table 3, wherein “+++”=DC50 less than 100 nM, “++”=DC50 greater than or equal to 100 nM and less than 300 nM; “+”=DC50 greater than or equal to 300 nM.

T1 sequence (P01116 1-188 isoform P01116-2 G12D): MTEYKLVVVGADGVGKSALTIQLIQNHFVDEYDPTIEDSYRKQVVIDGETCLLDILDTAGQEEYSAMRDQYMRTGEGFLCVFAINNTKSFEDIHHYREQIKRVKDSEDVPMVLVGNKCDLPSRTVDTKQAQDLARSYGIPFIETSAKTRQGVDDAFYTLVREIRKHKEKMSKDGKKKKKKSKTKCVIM

For `C#Cc1c(F)ccc2cccc(-c3ncc4c(N5CC6CCC(C5)N6)nc(OC[C@@]56CCCN5[C@H](COC(=O)N5CCC(CCC7CCN(Cc8ccc9c(c8)n(C)c(=O)n9C8CCC(=O)NC8=O)CC7)CC5)CC6)nc4c3F)c12` (stereo partly drawn) [Compound 69], the DC50 was < 100 nM.
In the case of `C#Cc1c(F)ccc2cccc(-c3ncc4c(N5CC6CCC(C5)N6)nc(OC[C@@]56CCCN5[C@H](COC(=O)N5CCC(C7CCN(c8ccc9c(c8)n(C)c(=O)n9C8CCC(=O)NC8=O)CC7)CC5)CC6)nc4c3F)c12` (stereo partly drawn) [Compound 70], the DC50 is reported as ≥ 300 nM.
In the case of `C#Cc1c(F)ccc2cccc(-c3ncc4c(N5CC6CCC(C5)N6)nc(OC[C@@]56CCCN5[C@H](COC(=O)N5CCC(OCC7CCN(Cc8ccc9c(c8)n(C)c(=O)n9C8CCC(=O)NC8=O)CC7)CC5)CC6)nc4c3F)c12` (stereo partly drawn) [Compound 71], the DC50 is reported as < 100 nM.
Work on `C#Cc1c(F)ccc2cccc(-c3ncc4c(N5CC6CCC(C5)N6)nc(OC[C@@]56CCCN5[C@H](COC(=O)N5CCN(C7CCN(Cc8ccc9c(c8)n(C)c(=O)n9C8CCC(=O)NC8=O)CC7)CC5)CC6)nc4c3F)c12` (stereo partly drawn) [Compound 72] yielded a DC50 of 100 to 300 nM.
In the case of `C#Cc1c(F)ccc2cccc(-c3ncc4c(N5CC6CCC(C5)N6)nc(OC[C@@]56CCCN5[C@H](COC(=O)N5CCC(COC7CN(Cc8ccc9c(c8)n(C)c(=O)n9C8CCC(=O)NC8=O)C7)CC5)CC6)nc4c3F)c12` (stereo partly drawn) [Compound 73], the DC50 is reported as < 100 nM.
In the case of `C#Cc1c(F)ccc2cccc(-c3ncc4c(N5CC6CCC(C5)N6)nc(OC[C@@]56CCCN5[C@H](COC(=O)N5CCC(OC7CN(Cc8ccc9c(c8)n(C)c(=O)n9C8CCC(=O)NC8=O)C7)CC5)CC6)nc4c3F)c12` (stereo partly drawn) [Compound 74], the DC50 is reported as < 100 nM.
For `C#Cc1c(F)ccc2cccc(-c3ncc4c(N5CC6CCC(C5)N6)nc(OC[C@@]56CCCN5[C@H](COC(=O)N5CCC(N7CCC(Cc8ccc9c(c8)n(C)c(=O)n9C8CCC(=O)NC8=O)CC7)CC5)CC6)nc4c3F)c12` (stereo partly drawn) [Compound 75], the DC50 was 100 to 300 nM.
With `C#Cc1c(F)ccc2cccc(-c3ncc4c(N5CC6CCC(C5)N6)nc(OC[C@]56CCCN5[C@@H](COC(=O)N5CCC(CN7CCC(c8ccc9c(c8)n(C)c(=O)n9C8CCC(=O)NC8=O)CC7)CC5)CC6)nc4c3F)c12` (stereo partly drawn) [Compound 76] the DC50 was < 100 nM.
For `C#Cc1c(F)ccc2cccc(-c3ncc4c(N5CC6CCC(C5)N6)nc(OC[C@]56CCCN5[C@@H](COC(=O)N5CCC(CC7CCN(Cc8cccc9c8n(C)c(=O)n9C8CCC(=O)NC8=O)CC7)CC5)CC6)nc4c3F)c12` (stereo partly drawn) [Compound 77], the DC50 was 100 to 300 nM.
With `C#Cc1c(F)ccc2cccc(-c3ncc4c(N5CC6CCC(C5)N6)nc(OC[C@@]56CCCN5[C@H](COC(=O)N5CC(CN7CCC(Oc8cccc9c8n(C)c(=O)n9C8CCC(=O)NC8=O)CC7)C5)CC6)nc4c3F)c12` (stereo partly drawn) [Compound 78] the DC50 was < 100 nM.
With `C#Cc1c(F)ccc2cccc(-c3ncc4c(N5CC6CCC(C5)N6)nc(OC[C@@]56CCCN5[C@H](COC(=O)N5CCC(CN7CCC(c8cccc9c8n(C)c(=O)n9C8CCC(=O)N(C)C8=O)CC7)CC5)CC6)nc4c3F)c12` (stereo partly drawn) [Compound 79] the DC50 was ≥ 300 nM.
`C#Cc1c(F)ccc2cccc(-c3ncc4c(N5CC6CCC(C5)N6)nc(OC[C@@]56CCCN5[C@H](COC(=O)N5CC[C@H](CN7CCC(c8ccc9c(c8)n(C)c(=O)n9C8CCC(=O)NC8=O)CC7)C5)CC6)nc4c3F)c12` (stereo partly drawn) [Compound 80] was tested, and the DC50 was < 100 nM.
For `C#Cc1c(F)ccc2cccc(-c3ncc4c(N5CC6CCC(C5)N6)nc(OC[C@@]56CCCN5[C@H](COC(=O)N5CC[C@@H](CN7CCC(c8ccc9c(c8)n(C)c(=O)n9C8CCC(=O)NC8=O)CC7)C5)CC6)nc4c3F)c12` (stereo partly drawn) [Compound 81, [(3S,8S)-8-[[4-(3,8-Diazabicyclo[3.2.1]octan-3-yl)-7-(8-ethynyl-7-fluoro-1-naphthyl)-8-fluoro-pyrido[4,3-d]pyrimidin-2-yl]oxymethyl]-1,2,3,5,6,7-hexahydropyrrolizin-3-yl]methyl (3S)-3-[[4-[1-(2,6-dioxo-3-piperidyl)-3-methyl-2-oxo-benzimidazol-5-yl]-1-piperidyl]methyl]pyrrolidine-1-carboxylate], the DC50 was < 100 nM.
In the case of `C#Cc1c(F)ccc2cc(O)cc(-c3ncc4c(N5CC6CCC(C5)N6)nc(OC[C@@]56CCCN5[C@H](COC(=O)N5CCC(CN7CCC(c8ccc9c(c8)n(C)c(=O)n9C8CCC(=O)NC8=O)CC7)CC5)CC6)nc4c3F)c12` (stereo partly drawn) [Compound 82, [(3S,8S)-8-[[4-(3,8-Diazabicyclo[3.2.1]octan-3-yl)-7-(8-ethynyl-7-fluoro-3-hydroxy-1-naphthyl)-8-fluoro-pyrido[4,3-d]pyrimidin-2-yl]oxymethyl]-1,2,3,5,6,7-hexahydropyrrolizin-3-yl]methyl 4-[[4-[1-(2,6-dioxo-3-piperidyl)-3-methyl-2-oxo-benzimidazol-5-yl]-1-piperidyl]methyl] piperidine-1-carboxylate], the DC50 is reported as < 100 nM.
In the case of `C#Cc1c(F)ccc2cccc(-c3ncc4c(N5CC6CCC(C5)N6)nc(OC[C@@]56CCCN5[C@H](COC(=O)N5CC(OC7CCN(Cc8cccc9c8n(C)c(=O)n9C8CCC(=O)NC8=O)CC7)C5)CC6)nc4c3F)c12` (stereo partly drawn) [Compound 83, [(3S,8S)-8-[[4-(3,8-Diazabicyclo[3.2.1]octan-3-yl)-7-(8-ethynyl-7-fluoro-1-naphthyl)-8-fluoro-pyrido[4,3-d]pyrimidin-2-yl]oxymethyl]-1,2,3,5,6,7-hexahydropyrrolizin-3-yl]methyl3-[[1-[[1-(2,6-dioxo-3-piperidyl)-3-methyl2-oxo-benzimidazol-4-yl]methyl]-4-piperidyl]oxy]azetidine-1-carboxylate], the DC50 is reported as < 100 nM.
For `C#Cc1c(F)ccc2cccc(-c3ncc4c(N5CC6CCC(C5)N6)nc(OC[C@@]56CCCN5[C@H](COC(=O)N5CCC(CCN7CCN(Cc8cccc9c8n(C)c(=O)n9C8CCC(=O)NC8=O)CC7)CC5)CC6)nc4c3F)c12` (stereo partly drawn) [Compound 84, [(3S,8S)-8-[[4-(3,8-Diazabicyclo[3.2.1]octan-3-yl)-7-(8-ethynyl-7-fluoro-1-naphthyl)-8-fluoro-pyrido[4,3-d]pyrimidin-2-yl]oxymethyl]-1,2,3,5,6,7-hexahydropyrrolizin-3-yl]methyl4-[2-[4-[[1-(2,6-dioxo-3-piperidyl)-3-methyl-2-oxo-benzimidazol-4-yl]methyl]piperazin-1-yl]ethyl]piperidine-1-carboxylate], the DC50 was < 100 nM.
With `C#Cc1c(F)ccc2cccc(-c3ncc4c(N5CC6CCC(C5)N6)nc(OC[C@@]56CCCN5[C@H](COC(=O)N5CCN(CCC7CCN(Cc8cccc9c8n(C)c(=O)n9C8CCC(=O)NC8=O)CC7)CC5)CC6)nc4c3F)c12` (stereo partly drawn) [Compound 85, [(3S,8S)-8-[[4-(3,8-Diazabicyclo[3.2.1]octan-3-yl)-7-(8-ethynyl-7-fluoro-1-naphthyl)-8-fluoro-pyrido[4,3-d]pyrimidin-2-yl]oxymethyl]-1,2,3,5,6,7-hexahydropyrrolizin-3-yl]methyl4-[2-[1-[[1-(2,6-dioxo-3-piperidyl)-3-methyl-2-oxo-benzimidazol-4-yl]methyl]-4-piperidyl]ethyl]piperazine-1-carboxylate] the DC50 was < 100 nM.
`C#Cc1c(F)ccc2cccc(-c3ncc4c(N5CC6CCC(C5)N6)nc(OC[C@@]56CCCN5[C@H](COC(=O)N5CCC(CCN7CCN(Cc8ccc9c(c8)n(C)c(=O)n9C8CCC(=O)NC8=O)CC7)CC5)CC6)nc4c3F)c12` (stereo partly drawn) [Compound 87, [(3S,8S)-8-[[4-(3,8-Diazabicyclo[3.2.1]octan-3-yl)-7-(8-ethynyl-7-fluoro-1-naphthyl)-8-fluoro-pyrido[4,3-d]pyrimidin-2-yl]oxymethyl]-1,2,3,5,6,7-hexahydropyrrolizin-3-yl]methyl 4-[2-[4-[[1-(2,6-dioxo-3-piperidyl)-3-methyl-2-oxo-benzimidazol-5-yl]methyl]piperazin-1-yl]ethyl]piperidine-1-carboxylate] was tested, and the DC50 was < 100 nM.
